From PubChem BioAssay AID1996
In brackets after ≈: the same amount, converted by molar mass.

conditions: buffer; pH 7.4; 200.0 µM

Point of comparison: Cc1csc(NC(=O)Cc2ccc(Br)cc2)n1, solubility kinetic 36.5 µg/mL (≈ 117 µM). Against it:
- O=C(NCc1ccco1)Nc1ccc([N+](=O)[O-])cc1 — 2.2-fold lower, 16.5 µg/mL (≈ 63.2 µM)
- Cc1cc(C(=O)N2CCc3ccccc3C2)c(C)o1 — higher, > 38.3 µg/mL
- Cc1cc(C(=O)NCCC(C)C)c2ccccc2n1 — within 1.5-fold, 31 µg/mL (≈ 121 µM)
- Cn1cc(S(=O)(=O)N2CCCC(C(=O)O)C2)cn1 (stereo unspecified) — higher, > 41 µg/mL
- O=C1N(Cc2ccc(F)cc2)CCN1c1ccc(F)cc1 — within 1.5-fold, 29.3 µg/mL (≈ 102 µM)
- CCN(C(=O)CN1C(=O)CN(C)C1=O)c1cccc2ccccc12 — higher, > 48.8 µg/mL
- CN(C)c1ccc(C(=O)N2CCN(C(=O)C3CCCO3)CC2)cc1 (stereo unspecified) — higher, > 49.7 µg/mL
- CC(NCc1ccccc1O)C12CC3CC(CC(C3)C1)C2.Cl (stereo unspecified) — within 1.5-fold, 41.9 µg/mL
- COCCNc1c(-c2ccc(OC)cc2)nc2ccc(Cl)cn12 — within 1.5-fold, 38.4 µg/mL (≈ 116 µM)
- O=C(COC(=O)c1cnc(Cl)c(Cl)c1)c1ccc(F)cc1 — 3.9-fold lower, 9.4 µg/mL (≈ 28.6 µM)
- COc1ccccc1CNC(=O)c1cc(C(=O)CC(C)C)c[nH]1 — 23-fold lower, 1.6 µg/mL (≈ 5.09 µM)
- COc1cccc(Cn2c(=O)c3[nH]cnc3n(-c3ccccc3C)c2=O)c1 — higher, > 54.4 µg/mL
- CN1C(=O)/C(=C\c2cccc(OCc3ccccc3)c2)SC1=S — lower, < 0.7 µg/mL
- Cc1ccc2nc(Cl)c(C#N)cc2c1 — 17-fold lower, 2.2 µg/mL (≈ 10.9 µM)
- Cc1nn(CC(=O)NCc2ccccc2)c(=O)c2cccn12 — higher, > 44.4 µg/mL
- CC(NC(=O)COC(=O)C1CC1C)c1ccccc1 (stereo unspecified) — higher, > 39.2 µg/mL
- O=C1CNC(=O)/C(=C\c2ccccc2)N1 — not separable, > 30.3 µg/mL
- CCOc1cc(N2CCOCC2)c(OCC)cc1NC(=O)CSc1nnc(N)s1 — higher, > 65.9 µg/mL
- Cl.FC(F)Sc1ccc(NC2=NCCCCC2)cc1 — within 1.5-fold, 45 µg/mL
- O=C(NC(=S)Nc1ccccc1CO)C1CCCCC1 — higher, > 43.9 µg/mL
- COc1ccc(NC(=O)c2cc(-c3ccccc3Cl)on2)cc1 — lower, < 0.4 µg/mL
- O=C1CC(c2ccccc2)CN1 (stereo unspecified) — not separable, > 24.2 µg/mL
- Cn1ncc([N+](=O)[O-])c1C(=O)Nc1ccccc1C(=O)O — higher, > 43.5 µg/mL
- O=C(Nc1ccc(OCc2ccccc2Cl)cc1)c1cccnc1 — 20-fold lower, 1.8 µg/mL (≈ 5.31 µM)
- O=C(COc1ccc2cc(Br)ccc2c1Br)N1CCOCC1 — 2.6-fold lower, 13.9 µg/mL (≈ 32.4 µM)
- CCOc1ccc(S(=O)(=O)NC(Cc2cnc[nH]2)C(=O)O)cc1 (stereo unspecified) — within 1.5-fold, 25.8 µg/mL (≈ 76 µM)
- CCN(CC)CC#Cc1ccc(C)cc1.Cl — 2.1-fold lower, 17.1 µg/mL
- O=S(=O)(NCc1ccccc1)c1ccc(Br)s1 — 1.7-fold lower, 21.3 µg/mL (≈ 64.1 µM)
- Cc1ccc(C(=O)C(C)OC(=O)Cn2c(C)csc2=O)cc1 (stereo unspecified) — higher, > 47.9 µg/mL
- Cc1cccc(C(=O)NC2CCCCCCC2)c1 — 4.1-fold lower, 8.9 µg/mL (≈ 36.3 µM)
- COc1cc(NC(=O)c2cc(C)no2)cc(OC)c1OC — higher, > 43.8 µg/mL
- Cc1ccc(N(C)S(=O)(=O)c2csc(C(N)=O)c2)cc1C — within 1.5-fold, 43.8 µg/mL (≈ 135 µM)
- O=C(NCc1cc2ccccc2[nH]1)c1ccccc1F — higher, > 40.2 µg/mL
- Cc1c(Cl)c(=O)oc2cc(OCC(=O)N3CCCC(C)C3)ccc12 (stereo unspecified) — within 1.5-fold, 38 µg/mL (≈ 109 µM)
- Cc1noc(C)c1C(=O)OCC(=O)NC1CCCCC1C (stereo unspecified) — higher, > 44.2 µg/mL
- CC(C)(C)n1cnc2cc(NC(=O)c3ccco3)ccc21 — within 1.5-fold, 41.1 µg/mL (≈ 145 µM)
- CSc1ncc(CN2CCCC(C(=O)c3cccc(Cl)c3)C2)cn1 (stereo unspecified) — within 1.5-fold, 29 µg/mL (≈ 80.1 µM)
- Cc1ccccc1NC(=O)/C(C#N)=C/c1ccc[nH]1 — 13-fold lower, 2.9 µg/mL (≈ 11.5 µM)
- CCOc1cc(N2CCOCC2)c(OCC)cc1NC(=O)c1ccc(OC)c(S(=O)(=O)N2CCOCC2)c1 — within 1.5-fold, 45.2 µg/mL (≈ 82.2 µM)
- Cc1cc(C(=O)NC2CCCC2)c2ccccc2n1 — higher, > 38.1 µg/mL
- N#Cc1nc(-c2ccccc2)oc1N1CCC(C(N)=O)CC1 — within 1.5-fold, 39.7 µg/mL (≈ 134 µM)
- Cl.Nc1ncnc2sc3c(c12)CCNC3 — not separable, > 36.4 µg/mL
- CCOC(=O)CN1CCS(=O)(=O)CC1 — not separable, > 33.2 µg/mL
- COc1ccc(CNC(=O)c2[nH]c(C)c(C(C)=O)c2C)cc1 — higher, > 45.1 µg/mL
- S=C(CN1CCCC1=S)NCCc1ccccc1 — higher, > 41.8 µg/mL
- Cc1cccc(NS(=O)(=O)c2ccc(C)c(C(=O)NCc3cccnc3)c2)c1 — higher, > 59.3 µg/mL
- Cc1cc(=O)oc2cc(OCC(O)Cn3ccnc3)ccc12 (stereo unspecified) — higher, > 45 µg/mL
- Cc1nc(N)c(Cc2ccccc2F)c(N)n1 — not separable, > 34.8 µg/mL
- CCCC(=O)Nc1ccc(-c2cn3cccnc3n2)cc1 — higher, > 42 µg/mL
- O=C(O)CCSC(=S)N1CCOCC1 — within 1.5-fold, 29.3 µg/mL (≈ 125 µM)
- CC(OC(=O)c1ccccn1)C(=O)Nc1nc(-c2ccc(F)c(F)c2)cs1 (stereo unspecified) — 4.6-fold lower, 7.9 µg/mL (≈ 20.3 µM)
- Cc1cc(C(=O)OCC(=O)N(C)c2ccccc2)c(C)o1 — higher, > 43.1 µg/mL
- CCSc1nc(C)nc2sc(C)c(C)c12 — lower, < 0.3 µg/mL
- Cc1cc(C)c(C#N)c(SCC(=O)C2CC2)n1 — 10-fold lower, 3.6 µg/mL (≈ 14.6 µM)
- Fc1ccc(CNCCc2ccc3c(c2)OCO3)cc1 — within 1.5-fold, 31.1 µg/mL (≈ 114 µM)
- CCc1sc(C(=O)Nc2cccnc2)cc1Br — 9.4-fold lower, 3.9 µg/mL (≈ 12.5 µM)
- COC(=O)CSc1[nH]c2cc(C)ccc2c1[N+](=O)[O-] — higher, > 42 µg/mL
- COC(=O)c1ccc(OC(=O)CN2C(=O)c3ccccc3C2=O)cc1 — within 1.5-fold, 50.6 µg/mL (≈ 149 µM)
- COc1ccc(CNC(=O)C(C)OC(=O)c2cccs2)cc1 (stereo unspecified) — within 1.5-fold, 26.9 µg/mL (≈ 84.2 µM)
- COc1ccccc1C(C[N+](=O)[O-])c1c(N)n(C)c(=O)n(C)c1=O (stereo unspecified) — higher, > 50.1 µg/mL
